Measurements taken from patent publication US20250034216A1, “STEREOSELECTIVE COVALENT LIGANDS FOR ONCOGENIC AND IMMUNOLOGICAL PROTEINS” (The Scripps Research Institute, priority 2021, published 2025).

Experiments:
Test in all cases: IA-DTB cysteine engagement
Type in all cases: binding
Conditions in all cases: 22Rv1 cells, 20 μM probe, 1 h, relative to DMSO
TTC3_C109 = target: T1, TTC3_C109 (Homo sapiens, UniProt P53804)
T1 construct: endogenous in cells; host or cells: 22Rv1
Method in brief: (§1)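 Probe-exposed cells were lysed, IA-DTB-labeled, trypsinized and streptavidin-enriched. Multiplexed TMT quantitation gave engagement ratios versus DMSO, with non-tryptic peptides excluded and intensities normalized to median summed signal.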

PRXL2A_C88 = target: T2, PRXL2A_C88 (Homo sapiens, UniProt Q9BRX8)
T2 construct: endogenous in cells; host or cells: 22Rv1
T2 sequence (Q9BRX8 1-229): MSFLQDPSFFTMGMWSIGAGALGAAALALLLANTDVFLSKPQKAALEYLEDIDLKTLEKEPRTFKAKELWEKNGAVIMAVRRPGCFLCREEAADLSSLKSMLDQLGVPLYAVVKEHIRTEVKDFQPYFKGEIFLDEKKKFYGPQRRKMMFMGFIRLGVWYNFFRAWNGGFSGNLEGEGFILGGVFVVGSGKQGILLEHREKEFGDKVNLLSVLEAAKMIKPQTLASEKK
Method in brief: as §1

MGST3_C56 = target: T3, MGST3_C56 (Homo sapiens, UniProt O14880)
T3 construct: endogenous in cells; host or cells: 22Rv1
Method in brief: as §1

BCKDK_C118 = target: T4, BCKDK_C118 (Homo sapiens, UniProt O14874)
T4 construct: endogenous in cells; host or cells: 22Rv1
Method in brief: as §1

PRRT3_C720 = target: T5, PRRT3_C720 (Homo sapiens, UniProt Q5FWE3)
T5 construct: endogenous in cells; host or cells: 22Rv1
Method in brief: as §1

IFT43_C58 = target: T6, IFT43_C58 (Homo sapiens, UniProt Q96FT9)
T6 construct: endogenous in cells; host or cells: 22Rv1
T6 sequence (Q96FT9 1-208): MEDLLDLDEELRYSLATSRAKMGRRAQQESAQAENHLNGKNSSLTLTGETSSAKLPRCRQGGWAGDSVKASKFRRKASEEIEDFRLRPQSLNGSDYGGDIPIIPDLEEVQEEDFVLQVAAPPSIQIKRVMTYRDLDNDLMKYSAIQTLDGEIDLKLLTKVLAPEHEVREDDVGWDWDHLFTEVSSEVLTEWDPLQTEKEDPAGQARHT
Method in brief: as §1

FABP5_C127 = target: T7, FABP5_C127 (Homo sapiens, UniProt Q01469)
T7 construct: endogenous in cells; host or cells: 22Rv1
Method in brief: as §1

PRAF2_C34 = target: T8, PRAF2_C34 (Homo sapiens, UniProt O60831)
T8 construct: endogenous in cells; host or cells: 22Rv1
T8 sequence (O60831 1-178): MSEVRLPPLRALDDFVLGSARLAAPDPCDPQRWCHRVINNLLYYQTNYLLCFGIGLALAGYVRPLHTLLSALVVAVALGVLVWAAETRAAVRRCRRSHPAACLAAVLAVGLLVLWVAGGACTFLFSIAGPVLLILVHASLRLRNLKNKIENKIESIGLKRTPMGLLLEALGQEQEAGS
Method in brief: as §1

SYNE2_C2993 = target: T9, SYNE2_C2993 (Homo sapiens, UniProt Q8WXH0)
T9 construct: endogenous in cells; host or cells: 22Rv1
Method in brief: as §1

HSDL1_C265 = target: T10, HSDL1_C265 (Homo sapiens, UniProt Q3SXM5)
T10 construct: endogenous in cells; host or cells: 22Rv1
T10 sequence (Q3SXM5 1-330): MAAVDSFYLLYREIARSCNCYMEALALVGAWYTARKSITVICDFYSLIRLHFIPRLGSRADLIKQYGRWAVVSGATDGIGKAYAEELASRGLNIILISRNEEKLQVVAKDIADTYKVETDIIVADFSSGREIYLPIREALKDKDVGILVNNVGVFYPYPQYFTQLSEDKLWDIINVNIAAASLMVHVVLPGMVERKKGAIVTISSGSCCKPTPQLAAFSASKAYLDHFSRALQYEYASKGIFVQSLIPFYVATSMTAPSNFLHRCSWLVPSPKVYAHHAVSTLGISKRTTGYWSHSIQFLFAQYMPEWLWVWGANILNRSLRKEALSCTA
Method in brief: as §1

T7 sequence (Q01469 whole entry): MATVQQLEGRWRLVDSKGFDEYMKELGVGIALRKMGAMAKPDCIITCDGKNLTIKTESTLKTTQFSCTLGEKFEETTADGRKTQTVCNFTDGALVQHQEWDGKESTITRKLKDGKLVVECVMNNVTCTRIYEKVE
T5 sequence (Q5FWE3 28-981): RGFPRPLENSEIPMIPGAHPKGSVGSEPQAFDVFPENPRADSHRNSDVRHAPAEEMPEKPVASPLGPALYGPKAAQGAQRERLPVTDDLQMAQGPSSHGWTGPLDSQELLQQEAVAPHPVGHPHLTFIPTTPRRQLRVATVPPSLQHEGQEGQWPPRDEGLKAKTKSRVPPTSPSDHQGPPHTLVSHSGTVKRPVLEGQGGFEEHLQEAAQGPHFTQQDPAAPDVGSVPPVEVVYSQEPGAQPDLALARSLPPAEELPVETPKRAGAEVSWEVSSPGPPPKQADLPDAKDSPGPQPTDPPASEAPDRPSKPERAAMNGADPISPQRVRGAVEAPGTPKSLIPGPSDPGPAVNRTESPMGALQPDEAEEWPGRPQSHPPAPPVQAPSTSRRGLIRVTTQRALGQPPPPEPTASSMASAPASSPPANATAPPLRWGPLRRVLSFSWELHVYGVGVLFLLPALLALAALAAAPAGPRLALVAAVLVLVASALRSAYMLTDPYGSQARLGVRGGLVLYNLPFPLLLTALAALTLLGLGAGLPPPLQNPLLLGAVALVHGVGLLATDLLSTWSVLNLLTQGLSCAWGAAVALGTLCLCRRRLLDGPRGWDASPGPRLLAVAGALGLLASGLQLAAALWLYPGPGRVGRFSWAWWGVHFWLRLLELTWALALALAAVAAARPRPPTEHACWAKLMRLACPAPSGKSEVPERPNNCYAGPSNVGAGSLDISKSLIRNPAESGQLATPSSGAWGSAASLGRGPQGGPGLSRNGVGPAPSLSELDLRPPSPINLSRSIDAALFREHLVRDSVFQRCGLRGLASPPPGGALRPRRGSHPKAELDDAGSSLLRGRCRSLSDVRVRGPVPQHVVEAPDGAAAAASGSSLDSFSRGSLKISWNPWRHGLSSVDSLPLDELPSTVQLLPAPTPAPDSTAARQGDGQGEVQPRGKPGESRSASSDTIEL
T3 sequence (O14880 whole entry): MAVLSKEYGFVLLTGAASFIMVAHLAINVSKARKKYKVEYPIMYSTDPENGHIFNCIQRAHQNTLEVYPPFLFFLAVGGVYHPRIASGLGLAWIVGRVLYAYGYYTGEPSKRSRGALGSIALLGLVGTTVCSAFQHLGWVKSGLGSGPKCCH
T1 sequence (P53804 whole entry): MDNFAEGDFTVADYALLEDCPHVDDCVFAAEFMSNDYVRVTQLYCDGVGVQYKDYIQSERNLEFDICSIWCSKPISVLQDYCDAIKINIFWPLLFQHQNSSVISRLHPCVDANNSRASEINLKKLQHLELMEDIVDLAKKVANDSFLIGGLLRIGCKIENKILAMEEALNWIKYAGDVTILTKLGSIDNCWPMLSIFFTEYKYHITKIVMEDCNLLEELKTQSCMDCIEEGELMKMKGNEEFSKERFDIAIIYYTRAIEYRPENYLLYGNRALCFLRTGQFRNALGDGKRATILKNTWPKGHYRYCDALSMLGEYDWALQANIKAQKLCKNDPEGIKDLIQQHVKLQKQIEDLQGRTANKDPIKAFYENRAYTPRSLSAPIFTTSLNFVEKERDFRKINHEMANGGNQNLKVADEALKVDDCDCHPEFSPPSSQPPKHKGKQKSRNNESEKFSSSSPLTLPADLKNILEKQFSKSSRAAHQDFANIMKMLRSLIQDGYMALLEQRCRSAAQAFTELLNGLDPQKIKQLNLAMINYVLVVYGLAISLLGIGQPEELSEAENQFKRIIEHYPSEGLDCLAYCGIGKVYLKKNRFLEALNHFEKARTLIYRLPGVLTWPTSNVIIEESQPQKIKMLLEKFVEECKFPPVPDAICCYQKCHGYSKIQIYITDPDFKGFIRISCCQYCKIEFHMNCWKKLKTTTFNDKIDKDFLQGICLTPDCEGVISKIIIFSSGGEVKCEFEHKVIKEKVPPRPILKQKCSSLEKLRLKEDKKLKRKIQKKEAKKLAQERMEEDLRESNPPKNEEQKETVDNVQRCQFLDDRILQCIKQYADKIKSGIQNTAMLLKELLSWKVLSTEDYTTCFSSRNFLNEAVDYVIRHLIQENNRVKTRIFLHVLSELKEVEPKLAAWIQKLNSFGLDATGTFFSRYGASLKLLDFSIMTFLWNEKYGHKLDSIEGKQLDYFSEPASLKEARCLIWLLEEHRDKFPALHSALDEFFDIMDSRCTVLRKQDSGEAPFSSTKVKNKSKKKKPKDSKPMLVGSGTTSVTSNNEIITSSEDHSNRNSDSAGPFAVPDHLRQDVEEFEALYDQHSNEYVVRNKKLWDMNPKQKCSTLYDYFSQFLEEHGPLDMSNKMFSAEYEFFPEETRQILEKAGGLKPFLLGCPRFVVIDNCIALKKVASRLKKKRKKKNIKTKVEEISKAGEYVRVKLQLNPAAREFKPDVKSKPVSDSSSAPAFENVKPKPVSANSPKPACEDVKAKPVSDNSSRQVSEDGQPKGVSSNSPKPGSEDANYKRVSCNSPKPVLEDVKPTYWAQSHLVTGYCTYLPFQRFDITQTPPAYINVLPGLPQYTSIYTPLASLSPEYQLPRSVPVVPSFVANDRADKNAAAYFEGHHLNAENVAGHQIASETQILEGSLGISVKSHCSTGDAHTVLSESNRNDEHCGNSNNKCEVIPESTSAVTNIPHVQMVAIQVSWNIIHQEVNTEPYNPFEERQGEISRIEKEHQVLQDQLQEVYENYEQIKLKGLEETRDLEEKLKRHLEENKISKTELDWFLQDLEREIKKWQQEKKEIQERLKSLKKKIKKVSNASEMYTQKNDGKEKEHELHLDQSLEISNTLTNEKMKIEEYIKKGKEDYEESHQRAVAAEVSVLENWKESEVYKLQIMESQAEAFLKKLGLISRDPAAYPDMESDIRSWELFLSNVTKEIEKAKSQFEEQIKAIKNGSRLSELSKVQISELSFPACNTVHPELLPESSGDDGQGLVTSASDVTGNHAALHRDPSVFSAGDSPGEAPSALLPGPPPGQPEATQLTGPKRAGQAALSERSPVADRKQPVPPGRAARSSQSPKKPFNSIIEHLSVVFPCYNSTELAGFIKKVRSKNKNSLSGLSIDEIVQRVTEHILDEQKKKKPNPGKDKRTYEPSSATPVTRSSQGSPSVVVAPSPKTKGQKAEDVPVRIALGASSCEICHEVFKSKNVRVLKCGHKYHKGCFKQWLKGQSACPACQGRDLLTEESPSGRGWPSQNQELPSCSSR

| % engagement TTC3_C109 (TTC3_C109) [%] | % engagement PRXL2A_C88 (PRXL2A_C88) [%] | % engagement MGST3_C56 (MGST3_C56) [%] | % engagement BCKDK_C118 (BCKDK_C118) [%] | % engagement PRRT3_C720 (PRRT3_C720) [%] | % engagement IFT43_C58 (IFT43_C58) [%] | % engagement FABP5_C127 (FABP5_C127) [%] | % engagement PRAF2_C34 (PRAF2_C34) [%] | % engagement SYNE2_C2993 (SYNE2_C2993) [%] | % engagement HSDL1_C265 (HSDL1_C265) [%] | SMILES |
| --- | --- | --- | --- | --- | --- | --- | --- | --- | --- | --- |
| 21.5 | 97.25 | 73.5 | 78.5 | 71 | 71.5 | −60.5 | 78.5 | 54.5 | 82 | C=CC(=O)N1C[C@H](c2ccc(Br)cc2)[C@H]1C(=O)Nc1cccc2cccnc12 [MY-3B, (2S,3S)-1-acryloyl-3-(4-bromophenyl)-N-(quinolin-8-yl)azetidine-2-carboxamide] |
| 54.5 | 97.25 | 58 | 57.75 | 53 | −17 | 73 | 74 | 76.5 | 54 | C=CC(=O)N1C[C@H](c2ccc(Br)cc2)[C@@H]1C(=O)Nc1cccc2cccnc12 [MY-1B, (2R,3S)-1-acryloyl-3-(4-bromophenyl)-N-(quinolin-8-yl)azetidine-2-carboxamide] |
| 4.5 | 95 | 63.5 | 43 | 45.5 | 17 | −13 | 55.5 | 26.5 | 64.25 | C=CC(=O)N1C[C@H](c2ccc(Br)cc2)[C@H]1C(=O)Nc1cccc2cccnc12 [MY-3A, (2S,3S)-1-acryloyl-3-(4-bromophenyl)-N-(quinolin-8-yl)azetidine-2-carboxamide] |
| 80.5 | 96.25 | 58.75 | 55.5 | 47 | 28.5 | 0 | 76 | −20 | 52 | C=CC(=O)N1C[C@@H](c2ccc(Br)cc2)[C@H]1C(=O)Nc1cccc2cccnc12 [MY-1A, (2S,3R)-1-acryloyl-3-(4-bromophenyl)-N-(quinolin-8-yl)azetidine-2-carboxamide] |
